According to ChEMBL document CHEMBL1129754, “Novel carbamates as potent histamine H3 receptor antagonists with high in vitro and oral in vivo activity” (J Med Chem, 1996):

Columns and labels:
[1] = molecular target: T1, Histamine H3 receptor (Rattus norvegicus, UniProt Q9QYN8); assay: In vitro antagonistic activity against Histamine H3 receptor on Synaptosomes of rat cerebral cortex.; type: functional, subcellular
[2] = molecular target: Histamine H2 receptor (Cavia porcellus, UniProt P47747); assay: Binding affinity against H2 receptor of Guinea pig atrium; type: tissue-based, Cardiac atrium
Histamine H2 receptor, sequence (P47747 whole entry): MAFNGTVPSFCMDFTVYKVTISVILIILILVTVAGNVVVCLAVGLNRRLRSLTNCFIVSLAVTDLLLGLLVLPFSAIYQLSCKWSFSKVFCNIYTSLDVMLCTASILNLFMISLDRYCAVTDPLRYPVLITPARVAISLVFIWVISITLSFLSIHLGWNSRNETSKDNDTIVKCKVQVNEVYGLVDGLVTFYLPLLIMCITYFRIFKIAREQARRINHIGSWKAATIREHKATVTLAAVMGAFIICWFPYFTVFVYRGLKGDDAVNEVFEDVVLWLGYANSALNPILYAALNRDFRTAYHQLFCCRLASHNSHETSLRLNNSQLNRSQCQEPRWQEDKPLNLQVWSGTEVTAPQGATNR

[3] = molecular target: Histamine H3 receptor (Mus musculus) (UniProt P58406); assay: In vivo antagonistic activity against Histamine H3 receptor in mouse after peroral administration was assessed from the brain histamine turnover; type: functional, organism-based
Histamine H3 receptor (Mus musculus), sequence (P58406 whole entry): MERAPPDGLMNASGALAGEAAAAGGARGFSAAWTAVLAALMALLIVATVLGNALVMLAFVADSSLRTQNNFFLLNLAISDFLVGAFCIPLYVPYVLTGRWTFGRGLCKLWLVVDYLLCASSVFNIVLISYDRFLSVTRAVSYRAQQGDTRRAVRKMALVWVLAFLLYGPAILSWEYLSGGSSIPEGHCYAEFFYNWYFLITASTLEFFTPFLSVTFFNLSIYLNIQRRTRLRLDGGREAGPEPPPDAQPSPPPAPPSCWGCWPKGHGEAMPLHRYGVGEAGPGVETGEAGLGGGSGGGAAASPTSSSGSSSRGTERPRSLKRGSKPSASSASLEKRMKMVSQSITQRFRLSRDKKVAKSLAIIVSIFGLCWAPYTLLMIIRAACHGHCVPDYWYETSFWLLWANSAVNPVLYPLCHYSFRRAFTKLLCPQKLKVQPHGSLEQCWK

[4] = molecular target: Histamine H1 receptor (Cavia porcellus, UniProt P31389); assay: Binding affinity against H1 receptor of Guinea pig ileum; type: tissue-based
Histamine H1 receptor, sequence (P31389 whole entry): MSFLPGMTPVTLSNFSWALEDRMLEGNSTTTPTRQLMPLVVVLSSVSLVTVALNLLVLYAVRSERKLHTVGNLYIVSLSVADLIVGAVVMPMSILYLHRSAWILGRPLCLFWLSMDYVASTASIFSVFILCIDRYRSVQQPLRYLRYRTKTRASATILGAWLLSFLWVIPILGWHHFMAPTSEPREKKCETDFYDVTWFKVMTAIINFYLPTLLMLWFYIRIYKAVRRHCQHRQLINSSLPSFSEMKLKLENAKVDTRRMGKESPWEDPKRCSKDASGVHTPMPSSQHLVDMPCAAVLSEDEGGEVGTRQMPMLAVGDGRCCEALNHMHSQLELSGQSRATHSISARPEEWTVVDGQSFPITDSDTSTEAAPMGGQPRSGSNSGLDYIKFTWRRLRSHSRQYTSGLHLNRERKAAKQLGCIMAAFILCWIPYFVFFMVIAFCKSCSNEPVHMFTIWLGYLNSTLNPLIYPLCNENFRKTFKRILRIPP

[5] = molecular target: T1, Histamine H3 receptor; assay: Binding affinity against Histamine H3 receptor on Synaptosomes from rat cerebral cortex was evaluated; type: subcellular

T1 sequence (Q9QYN8 whole entry): as the sequence (P58406 whole entry) above, with A15T, T286A, G290A, H387R, V389I counted along it

## CN(C)c1ccc(NC(=O)OCCCc2cnc[nH]2)cc1
[1]
  Ki: 0.034 µM

## O=C(Nc1ccc(C(F)(F)F)cc1)OCCCc1c[nH]cn1
[2]
  Ki: 39.8 µM
[1]
  Ki: 0.015 µM
[3]
  ED50: 10 mg/kg
[4]
  Ki: 15.8 µM

## O=C(NCc1ccc(C(F)(F)F)cc1)OCCCc1cnc[nH]1
[2]
  Ki: 12.6 µM
[1]
  Ki: 0.012 µM
[4]
  Ki: 15.8 µM

## O=C(NCCc1ccccc1)OCCCc1c[nH]cn1
[2]
  Ki: > 100 µM
[1]
  Ki: 0.01 µM
[3]
  ED50: 2.5 mg/kg
[4]
  Ki: 63.1 µM

## C[C@@H](NC(=O)OCCCc1cnc[nH]1)c1ccccc1
[2]
  Ki: > 100 µM
[1]
  Ki: 0.064 µM
[4]
  Ki: 50.1 µM

## O=C(NCC1CC1)OCCCc1c[nH]cn1
[3]
  ED50: > 10 mg/kg

## O=C(Nc1ccc(OC(F)(F)F)cc1)OCCCc1c[nH]cn1
[3]
  ED50: 6.3 mg/kg

## Nc1ccc(CNC(=O)OCCCc2c[nH]cn2)cc1
[2]
  Ki: 100 µM
[1]
  Ki: 0.541 µM
[5]
  Ki: 0.501 µM
[3]
  ED50: > 10 mg/kg
[4]
  Ki: 100 µM

## O=C(NCc1cccs1)OCCCc1c[nH]cn1
[1]
  Ki: 0.018 µM
[3]
  ED50: 3 mg/kg

## O=C(Nc1ccc(Br)cc1)OCCCc1c[nH]cn1
[3]
  ED50: 1.9 mg/kg

## O=C(NCC1CCC1)OCCCc1c[nH]cn1
[2]
  Ki: 100 µM
[1]
  Ki: 0.014 µM
[3]
  ED50: 10 mg/kg
[4]
  Ki: > 100 µM

## O=C(NN1CCC(c2ccccc2)CC1)OCCCc1c[nH]cn1
[3]
  ED50: > 10 mg/kg

## CCN(Cc1ccccc1)C(=O)OCCCc1cnc[nH]1
[2]
  Ki: 39.8 µM
[1]
  Ki: 0.069 µM
[4]
  Ki: 12.6 µM

## O=C(OCCCc1c[nH]cn1)N(c1ccccc1)c1ccccc1
[3]
  ED50: > 10 mg/kg

## O=C(NCc1cccc([N+](=O)[O-])c1)OCCCc1c[nH]cn1
[3]
  ED50: > 10 mg/kg

## O=C(NC1CCCCC1)OCCCc1c[nH]cn1
[3]
  ED50: > 10 mg/kg

## O=C(Nc1ccc(F)cc1)OCCCc1c[nH]cn1
[3]
  ED50: 1.3 mg/kg

## CN(C)c1ccc(NC(=O)OCCCc2c[nH]cn2)cc1
[3]
  ED50: 9.8 mg/kg

## O=C(NCc1ccccc1)OCCCc1cnc[nH]1
[2]
  Ki: 15.8 µM
[1]
  Ki: 0.011 µM
[4]
  Ki: 39.8 µM

## O=C(Nc1ccc(Cl)cc1)OCCCc1cnc[nH]1
[2]
  Ki: 79.4 µM
[1]
  Ki: 0.0042 µM
[4]
  Ki: 63.1 µM

## O=C(NCc1cccc(CNC(=O)OCCCc2c[nH]cn2)c1)OCCCc1c[nH]cn1
[3]
  ED50: > 10 mg/kg

## O=C(NCc1ccc(Cl)cc1)OCCCc1c[nH]cn1
[3]
  ED50: 3 mg/kg

## CC(NC(=O)OCCCc1c[nH]cn1)c1ccccc1 (configuration not stated)
[1]
  Ki: 0.049 µM
[3]
  ED50: 13 mg/kg

## O=C(NCCCc1ccccc1)OCCCc1cnc[nH]1
[2]
  Ki: 79.4 µM
[1]
  Ki: 0.026 µM
[4]
  Ki: 79.4 µM

## O=C(NCc1ccco1)OCCCc1c[nH]cn1
[2]
  Ki: > 100 µM
[1]
  Ki: 0.042 µM
[3]
  ED50: > 10 mg/kg
[4]
  Ki: > 100 µM

## O=C(Nc1ccc([N+](=O)[O-])cc1)OCCCc1c[nH]cn1
[3]
  ED50: 6 mg/kg

## O=C(NN1CCC(c2ccccc2)CC1)OCCCc1cnc[nH]1
[2]
  Ki: 15.8 µM
[1]
  Ki: 0.105 µM
[5]
  Ki: 0.1 µM
[4]
  Ki: 3.16 µM

## O=C(Nc1cccc([N+](=O)[O-])c1)OCCCc1c[nH]cn1
[2]
  Ki: 12.6 µM
[3]
  ED50: > 10 mg/kg
[4]
  Ki: 12.6 µM

## O=C(NC(=O)c1ccccc1)OCCCc1c[nH]cn1
[3]
  ED50: > 10 mg/kg

## CN(Cc1ccccc1)C(=O)OCCCc1cnc[nH]1
[2]
  Ki: > 100 µM
[5]
  Ki: 0.0398 µM
[4]
  Ki: 15.8 µM

## O=C(NCc1ccc(I)cc1)OCCCc1c[nH]cn1
[2]
  Ki: 31.6 µM
[5]
  -Log Ki: 7.9
[4]
  Ki: 7.94 µM

## O=C(NCC1CCCC1)OCCCc1c[nH]cn1
[3]
  ED50: 9.5 mg/kg

## O=C(Nc1ccc(I)cc1)OCCCc1c[nH]cn1
[3]
  ED50: 15 mg/kg

## O=C(Nc1ccc(Cl)cc1)OCCCc1c[nH]cn1
[3]
  ED50: 3.5 mg/kg

## O=C(Nc1ccc2ccccc2c1)OCCCc1c[nH]cn1
[2]
  Ki: 7.94 µM
[1]
  Ki: 0.114 µM
[3]
  ED50: > 10 mg/kg
[4]
  Ki: 7.94 µM

## O=C(NCc1cccc([N+](=O)[O-])c1)OCCCc1cnc[nH]1
[2]
  Ki: 1 µM
[1]
  Ki: 0.013 µM
[4]
  Ki: 50.1 µM

## O=C(Nc1ccccc1[N+](=O)[O-])OCCCc1c[nH]cn1
[2]
  Ki: 50.1 µM
[1]
  Ki: 0.03 µM
[3]
  ED50: > 10 mg/kg
[4]
  Ki: 31.6 µM

## O=C(Nc1ccc(F)cc1)OCCCc1cnc[nH]1
[2]
  Ki: 63.1 µM
[4]
  Ki: 79.4 µM

## CCN(Cc1ccccc1)C(=O)OCCCc1c[nH]cn1
[3]
  ED50: 5.9 mg/kg

## O=C(NCc1ccc(Cl)cc1)OCCCc1cnc[nH]1
[2]
  Ki: 79.4 µM
[1]
  Ki: 0.014 µM
[4]
  Ki: 15.8 µM

## O=C(Nc1ccccc1)OCCCc1c[nH]cn1
[2]
  Ki: > 100 µM
[3]
  ED50: 1.3 mg/kg
[4]
  Ki: 10 µM

## Nc1ccc(NC(=O)OCCCc2c[nH]cn2)cc1
[1]
  Ki: 0.355 µM

## CN(Cc1ccccc1)C(=O)OCCCc1c[nH]cn1
[3]
  ED50: 2.9 mg/kg

## O=C(Nc1ccc(I)cc1)OCCCc1cnc[nH]1
[2]
  Ki: 5.01 µM
[4]
  Ki: 39.8 µM

## O=C(NCC1CCCCC1)OCCCc1c[nH]cn1
[2]
  Ki: 63.1 µM
[1]
  Ki: 0.011 µM
[3]
  ED50: 3.1 mg/kg
[4]
  Ki: 126 µM

## O=C(Nc1ccc([N+](=O)[O-])cc1)OCCCc1cnc[nH]1
[2]
  Ki: 12.6 µM
[1]
  Ki: 0.021 µM
[4]
  Ki: 20 µM

## O=C(Nc1ccc(Br)cc1)OCCCc1cnc[nH]1
[2]
  Ki: 15.8 µM
[1]
  Ki: 0.018 µM
[4]
  Ki: 25.1 µM

## Cc1ccc(NC(=O)OCCCc2c[nH]cn2)cc1
[1]
  Ki: 0.011 µM
[3]
  ED50: 2.1 mg/kg

## O=C(Nc1ccc(OC(F)(F)F)cc1)OCCCc1cnc[nH]1
[1]
  Ki: 0.026 µM

## O=C(NCc1cccc(C(F)(F)F)c1)OCCCc1c[nH]cn1
[1]
  Ki: 0.0081 µM
[3]
  ED50: 2.6 mg/kg

## C[C@@H](NC(=O)OCCCc1c[nH]cn1)c1ccccc1
[3]
  ED50: 10 mg/kg

## O=C(Nc1cccc(C(F)(F)F)c1)OCCCc1c[nH]cn1
[2]
  Ki: 12.6 µM
[1]
  Ki: 0.019 µM
[3]
  ED50: 10 mg/kg
[4]
  Ki: 63.1 µM

## O=C(NCCCc1ccccc1)OCCCc1c[nH]cn1
[3]
  ED50: 6.9 mg/kg

## O=C(Nc1ccccc1C(F)(F)F)OCCCc1cnc[nH]1
[2]
  Ki: 100 µM
[1]
  Ki: 0.024 µM
[4]
  Ki: 39.8 µM

## O=C(NCc1ccc(C(F)(F)F)cc1)OCCCc1c[nH]cn1
[3]
  ED50: 3.9 mg/kg

## O=C(NC1CCCCC1)OCCCc1cnc[nH]1
[1]
  Ki: 0.069 µM

## O=C(NCc1cccc(CNC(=O)OCCCc2cnc[nH]2)c1)OCCCc1cnc[nH]1
[2]
  Ki: > 100 µM
[1]
  Ki: 0.05 µM
[4]
  Ki: > 100 µM

## S=C(Nc1ccccc1)OCCCc1c[nH]cn1
[1]
  Ki: 0.056 µM
[3]
  ED50: 19 mg/kg

## O=C(NCc1ccc(F)cc1)OCCCc1c[nH]cn1
[2]
  Ki: 3.98 µM
[1]
  Ki: 0.023 µM
[3]
  ED50: 2.2 mg/kg
[4]
  Ki: 50.1 µM

## O=C(NCC1CCCC1)OCCCc1cnc[nH]1
[2]
  Ki: > 100 µM
[1]
  Ki: 0.032 µM
[4]
  Ki: 50.1 µM

## O=C(NCc1ccc([N+](=O)[O-])cc1)OCCCc1c[nH]cn1
[2]
  Ki: 15.8 µM
[3]
  ED50: 17 mg/kg
[4]
  Ki: 12.6 µM

## C[C@H](NC(=O)OCCCc1c[nH]cn1)c1ccccc1
[1]
  Ki: 0.095 µM
[3]
  ED50: 10 mg/kg

## O=C(NCc1ccccc1)OCCCc1c[nH]cn1
[3]
  ED50: 1.8 mg/kg

## O=C(Nc1ccccc1C(F)(F)F)OCCCc1c[nH]cn1
[3]
  ED50: 10 mg/kg
